Test [1] relates to Puccinia recondita f. sp. tritici. Briefly: Leaf disc/segment test on wheat, Puccinia recondita f. sp. tritici (Brown Rust), 7-9 days after application. The test is classed as in vivo. Here is the method:
Leaf disks or leaf segments of various plant species were cut from plants grown in the greenhouse. The cut leaf disks, or segments were placed in multiwell plates (24-well format) onto water agar. The leaf disks were sprayed with a test solution before inoculation with the fungal spores. Compounds to be tested were prepared as DMSO solutions (max. 10 mg/ml) which were diluted to the appropriate concentration with water plus 0.025% Tween® 20 just before spraying. The inoculated leaf disks or segments were incubated under defined conditions (temperature, relative humidity, light, etc.) according to the respective test system. A single evaluation of disease level was carried out by visual evaluation 3-9 days days after inoculation, depending on the pathosystem as indicated below. Percent disease control relative to the untreated check leaf disks or segments was then calculated.
Puccinia recondita f. Sp. Tritici/Wheat/Leaf Disc (Brown Rust)
Wheat leaf segments cv. Kanzler were placed on agar in multiwell plates (24-well format) and sprayed with the formulated test compound diluted in water. The leaf disks were inoculated with a spore suspension of the fungus 1 day after application. The inoculated leaf segments were incubated at 19 °C and 75% rh under a light regime of 12 h light/12 h darkness in a climate cabinet and the activity of a compound was assessed as percent disease control compared to untreated when an appropriate level of disease damage appears in untreated check leaf segments (7-9 days after application).

For test [2] the test system is unchanged. Briefly: Leaf painting assay in wheat seedling, Puccinia recondita. In kind it is in vivo, Puccinia recondita f. sp. tritici on wheat (variety Arina). Particulars: for % reduction of fungal growth: middle segment; for control on the treated area (middle segment): up to, Table 6, Puccinia. Here is the method:
Wheat seedlings of the variety Riband (for Zymoseptoria tritici trials) or variety Arina (for Puccinia recondite trials) were grown in a glasshouse until 14 d after seeding. At this time, such seedlings usually have a first leaf fully emerged (designated L1), a second leaf fully emerged (L2) and a third leaf (L3) that was partially emerged and in the process of development. Using a permanent pen, two dots were applied on the second leaf such as to generate three segments of roughly equal size: Segment A (at the base), segment B (middle part) and segment C (upper part of the leaf). A stock solution of the test compound was produced in DMSO at a concentration of 10′000 ppm. […] The diluted compound was applied to the middle segment of L2 using a conventional cotton stick; the cotton stick was soaked in the diluted compound and rubbed several times on the adaxial leaf surface between the two marks. 1 day later, the complete plant was inoculated with a fungal spore suspension using a paint brush and application of the spore suspension until before run-off.
For infection with Puccinia recondita: The test plants were inoculated by spraying them with a spore suspension 1 day after application (spore suspension at 80′000 spores per ml in water supplemented with Tween® 20 at 0.1%). After an incubation period of 1 day at 20 °C and 95% rh, the inoculated test plants were kept at 20 °C and 60% rh in a greenhouse.
The three segments of the leaf were evaluated individually.

For test [3], the system named is Fusarium culmorum. Put plainly: Liquid culture 96-well mixture assay with malonomicin, Fusarium culmorum, 72 hrs. The test is classed as cell-based. Particulars: read-out: control of fungal growth (% reduction). Here is the method:
(§1) A stock solution for compound of Formula I(a) was produced in DMSO (max. 10 mg/ml). Malonomicin was produced according to Law et al, 2018 (Nature Catalys is |VOL 1|DECEMBER 2018|977-984). A stock solution of malonomicin was produced in water plus 0.025% Tween® 20.
(§2) Assays to test efficacy of mixtures of the lipopeptide compound of Formula I(a) in combination with malonomicin on the control of fungal pathogens in a liquid culture assay were designed for a 96well plate as outlined in table 1:
(§3) The 96 well plate design allows to compare disease control of the mixture with disease control of the respective single compound at the same rate.
(§4) A master plate with 10× concentrated solution of the compound stock solutions diluted in water plus 0.025% Tween® 20 was prepared. The concentration of DMSO (from the stock of compound of Formula (a)) and Tween® 20 was kept constant in all cells of the master plate. 10 μl was transferred from the master plate to a 96well test plate. The nutrient broth containing the fungal spores/mycelia fragments was then added to the test plate to give an end concentration of 1× for the tested compounds (as outlined in Table 8). The test plates were incubated in the dark at 24 °C and 96% rh. The inhibition of fungal growth was determined photometrically after ca 3 days, and percent fungal growth reduction relative to the untreated check was calculated.
Fusarium culmorum (EPPO Code: FUSACU)
(§5) Conidia of the fungus from cryogenic storage were directly mixed into nutrient broth (PDB: potato dextrose broth).

Test [4] deals with Microdochium nivale. Put plainly: Liquid culture 96-well mixture assay with malonomicin, Microdochium nivale, 72 hrs. The test is classed as cell-based. Particulars: read-out: control of fungal growth (% reduction). Here is the method:
as §1, §2, §3, §4
Microdochium nivale (EPPO Code: MONGNI)
as §5

SMILES strings stand for the structures. Numbered stars: 1 amine (or outer) side, 2 acyl side, 3 side chain; on linkers, the order of the positions; unused ones are H or OH. Bridge positions count the residues as written; N and C are the ends. Square brackets hold non-standard residues; d marks the D form. Peptide text beside a SMILES is read from it. * marks the point of attachment. Tridecanoyl(12-Me) = CC(C)CCCCCCCCCCC(=O)*; X1 = NC(=O)CC(O)C(N[*:1])C(=O)[*:2]; NMeF = CN[CH](Cc1ccccc1)C(=O)O; NMeN = CN[CH](CC(N)=O)C(=O)O; X2 = CCC(C)CCCCCCCCCCC(=O)*

Take `CC(C)CCCCCCCCCCC(=O)NC1C(=O)NC(CC(=O)O)C(=O)NC(C(O)CC(N)=O)C(=O)NC(CO)C(=O)N(C)C(CC(N)=O)C(=O)N(C)C(Cc2ccccc2)C(=O)NC(CCC(N)=O)C(=O)NC(CCC(=O)O)C(=O)OC1C` (stereo not shown) [Formula I(a)] ({Tridecanoyl(12-Me)}-TD[X1]S[NMeN][NMeF]QE; ester 1-C; configuration not given here): the “% reduction of fungal growth” value in test [1] (Table 4, 0.82 ppm) is given as 0%; in test [1] (Table 4, 2.5 ppm) it was 0%; in test [1] (Table 4, 7.4 ppm), 0%; in test [1] (Table 4, 22 ppm), 0%; in test [1] (Table 4, 67 ppm) it was 90%; in test [1] (Table 4, 200 ppm), 100%. The “% reduction of fungal growth” value in test [1] (Table 5, 0.82 ppm) is recorded as 0%; in test [1] (Table 5, 2.5 ppm) it was 0%; in test [1] (Table 5, 7.4 ppm) it was 0%; in test [1] (Table 5, 22 ppm) it was 35%; in test [1] (Table 5, 67 ppm), 90%; in test [1] (Table 5, 200 ppm), 95%. The “% reduction of fungal growth” value stood at 70% in test [2] (20 ppm) and 61% in test [2] (200 ppm). The “control on the treated area (middle segment)” value in test [2] is “up to 70%”. For the same molecule, the inhibition of growth at 1.56 µg/mL in test [3] (I(a) 1.56 ppm) and in test [4] (I(a) 1.56 ppm) was 0% each time. Also, the inhibition of growth at 3.125 µg/mL in test [3] (I(a) 3.125 ppm) and in test [4] (I(a) 3.125 ppm) was 0% throughout. In addition, the inhibition of growth at 6.25 µg/mL in test [3] (I(a) 6.25 ppm) and in test [4] (I(a) 6.25 ppm) was 0% throughout. In addition, the inhibition of growth at 12.5 µg/mL in test [3] (I(a) 12.5 ppm) and in test [4] (I(a) 12.5 ppm) was 0% each time. The inhibition of growth at 25 µg/mL in test [3] (I(a) 25 ppm) and in test [4] (I(a) 25 ppm) was 0% in each case. Besides, the inhibition of growth at 50 µg/mL in test [3] (I(a) 50 ppm) and in test [4] (I(a) 50 ppm) was 0% in each case. The inhibition of growth at 100 µg/mL in test [3] (I(a) 100 ppm) and in test [4] (I(a) 100 ppm) was 0% in each case.
Take `CCC(C)CCCCCCCCCCC(=O)NC1C(=O)NC(CC(=O)O)C(=O)NC(C(O)CC(N)=O)C(=O)NC(CO)C(=O)N(C)C(CC(N)=O)C(=O)N(C)C(Cc2ccccc2)C(=O)NC(CCC(N)=O)C(=O)NC(CCC(=O)O)C(=O)OC1C` (stereo not shown) [Formula I(b)] (X2-TD[X1]S[NMeN][NMeF]QE; ester 1-C; configuration not given here): the “% reduction of fungal growth” value in test [1] (Table 4, 0.82 ppm) is 0%; in test [1] (Table 4, 2.5 ppm) it was 0%; in test [1] (Table 4, 7.4 ppm), 0%; in test [1] (Table 4, 22 ppm) it was 0%; in test [1] (Table 4, 67 ppm) it was 45%; in test [1] (Table 4, 200 ppm), 70%. Also, the “% reduction of fungal growth” value in test [1] (Table 5, 0.82 ppm) was found to be 0%; in test [1] (Table 5, 2.5 ppm) it was 0%; in test [1] (Table 5, 7.4 ppm) it was 0%; in test [1] (Table 5, 22 ppm), 35%; in test [1] (Table 5, 67 ppm), 70%; in test [1] (Table 5, 200 ppm), 95%. In addition, the “% reduction of fungal growth” value came to 55% in test [2] (20 ppm) and 67% in test [2] (200 ppm). The “control on the treated area (middle segment)” value in test [2] is “up to 70%”.
In the case of `NC[C@@H]1NC(=O)C(C(=O)CC(NC(=O)[C@@H](N)CO)(C(=O)O)C(=O)O)=C1O` [malonomicin, {[(2S)-2-amino-3-hydroxypropanoyl]amino}{2-[(5S)-5-(aminomethyl)-4-hydroxy-2-oxo-2,5-dihydro-1H-pyrrol-3-yl]-2-oxoethyl}malonic acid], the inhibition of growth at 1 ppm in test [3] (malonomicin 1.00 ppm) was 0%; in test [4] (malonomicin 1.00 ppm) it was 20%. Moreover, the inhibition of growth at 3 ppm came to 0% in test [3] (malonomicin 3.00 ppm) and 20% in test [4] (malonomicin 3.00 ppm). In addition, the inhibition of growth at 7.81 ppm in test [3] (malonomicin 7.81 ppm) amounted to 0%; in test [4] (malonomicin 7.81 ppm), 20%. Also, the inhibition of growth at 15.63 ppm in test [3] (malonomicin 15.63 ppm) amounted to 0%; in test [4] (malonomicin 15.63 ppm) it was 20%. Further, the inhibition of growth at 31.25 ppm in test [3] (malonomicin 31.25 ppm) worked out at 0%; in test [4] (malonomicin 31.25 ppm), 20%. Also, the inhibition of growth at 62.5 ppm amounted to 0% in test [3] (malonomicin 62.5 ppm) and 50% in test [4] (malonomicin 62.5 ppm). Moreover, the inhibition of growth at 125 ppm in test [3] (malonomicin 125 ppm) came out at 20%; in test [4] (malonomicin 125 ppm), 90%. Besides, the inhibition of growth at 250 ppm in test [3] (malonomicin 250 ppm) was found to be 20%; in test [4] (malonomicin 250 ppm), 100%. The inhibition of growth at 500 ppm stood at 20% in test [3] (malonomicin 500 ppm) and 100% in test [4] (malonomicin 500 ppm). The inhibition of growth at 1000 ppm in test [3] (malonomicin 1000 ppm) stood at 20%; in test [4] (malonomicin 1000 ppm), 100%.

The values are drawn from patent publication US20260347403A1, “FUNGICIDAL COMPOUND” (priority 2022, published 2026).
